In PMC4583543, “Development and Validation of a Novel Leishmania donovani Screening Cascade for High-Throughput Screening Using a Novel Axenic Assay with High Predictivity of Leishmanicidal Intracellular Activity” (PLoS Neglected Tropical Diseases, 2015):

What was measured:
THP-1 cells = assay: THP-1 host cell toxicity in the intramacrophage assay; assay type: cell-based, human; conditions: reference compound panel, mean (standard deviation), host cell toxicity; for EC50: Homo sapiens, THP-1, read-out: THP-1 (potency, pEC50) (converted)
Description: (§1) Compounds were dispensed into 384-well assay plates by acoustic dispensing (LabCyte ECHO). […] Potencies are reported as pEC50 (-LOG(EC50[M])).
(§2) All data was processed using IDBS ActivityBase. […] Potency plates were normalised to DMSO control (0% effect) and 2μM amphotericin B control (100% effect). […] For compounds with low activity and poor definition of the curve top, B was fixed to 100. For the determination of the reference compound panel potency, all experiments were carried out with a minimum of three independent repeats.
(§3) The assay conditions are described previously. Briefly PMA differentiated THP-1 cells were infected overnight with eGFP expressing LdBOB amastigote-like cells at a multiplicity of infection of 5. Next, any remaining free amastigote-like cells are removed and compounds are added. The microscopy-based read-out is done after a four day compound incubation.

[1] = set-up: method as in PMID 197231; conditions: cited from earlier work
HepG2 cells = assay: HepG2 assay (mammalian counterscreen, resazurin); assay type: cell-based, human; conditions: reference compound panel, mean (standard deviation), 72 h; for EC50: Homo sapiens, HepG2, read-out: HepG2 (potency, pEC50) (converted)
Description: Compounds were dispensed into 384-well assay plates by acoustic dispensing (LabCyte ECHO). […] Potencies are reported as pEC50 (-LOG(EC50[M])). All data was processed using IDBS ActivityBase. […] For compounds with low activity and poor definition of the curve top, B was fixed to 100. For the determination of the reference compound panel potency, all experiments were carried out with a minimum of three independent repeats. The assay conditions are described previously.

[2] = tested on: LdBOB axenic amastigote-like cells; assay: Novel (cidal) axenic amastigote assay, BacTiter-Glo read-out; assay type: cell-based, Leishmania donovani; conditions: for EC50: Leishmania donovani, read-out: Novel (axenic assay potency, pEC50) (converted)
Description: Leishmania donovani BOB cells (LdBOB) used in this study are a cloned line from strain MHOM/SD/62/1S-CL2 [13]. Cultures were maintained as described previously. Compounds were dispensed into 384-well assay plates by acoustic dispensing (LabCyte ECHO). […] Potencies are reported as pEC50 (-LOG(EC50[M])). All data was processed using IDBS ActivityBase. […] For compounds with low activity and poor definition of the curve top, B was fixed to 100. For the determination of the reference compound panel potency, all experiments were carried out with a minimum of three independent repeats. Test compounds were pre-dispensed into white 384 well plates (Corning). For library screens one compound per well was tested at the indicated final concentration. […] DMSO, zero percent effect control: cells at starting concentration. The zero percent effect control wells are left empty during the course of the assay. […] The assay volume is 25 μl / well. […] Plates were then sealed with clear film and relative luminescence was detected using a plate reader (Victor 3) from Perkin Elmer or PHERAstar FS from BMG LABTECH, with 0.5 s detection time per well).

[3] = tested on: eGFP expressing LdBOB amastigote-like cells in PMA differentiated THP-1 cells; assay: Intramacrophage (intracellular, INMAC) assay; assay type: cell-based, Leishmania donovani; conditions: reference compound panel, mean (standard deviation), minimum three independent repeats, four day incubation; for EC50: Leishmania donovani, THP-1, 96 h, read-out: Intramacrophage (potency, pEC50) (converted)
Description: as §1, §2, §3

[4] = cited from earlier work

Row | SMILES | EC50 (THP-1 cells) [µM] | stability in serum [1] | EC50 (HepG2 cells) [µM] | EC50 [2] [µM] | activity in words (novel axenic versus intracellular) ([2]; reference compound panel) | EC50 [3] [µM] | aqueous solubility [4] | THP-1 (potency, pEC50) (THP-1 cells) | HepG2 (potency, pEC50) (HepG2 cells) | Novel (axenic assay potency, pEC50) ([2]; reference compound panel, mean (standard deviation), minimum three independent repeats, top concentration 50 μM, pEC50 = -LOG(EC50[M])) | Intramacrophage (potency, pEC50) [3]
1 | CCN(CC)C(=S)SSC(=S)N(CC)CC [Disulfiram] | > 34.7 | unstable in serum | 45.7 | 0.363 | only active in the novel axenic assay | > 34.7 | poor |  |  |  | 
2 | C[C@@H]1[C@H](O)[C@@H](C)/C=C/C=C/CC/C=C/C=C/C=C/C=C/C(O[C@H]2O[C@H](C)[C@@H](O)[C@H](N)[C@@H]2O)CC2O[C@](O)(CC(O)C(O)CCC(O)CC(O)CC(O)CC(=O)O[C@H]1C)CC(O)C2C(=O)O (stereo partly shown) [Nystatin] |  |  |  |  |  |  |  | < 4.46 | < 4.3 | 5.19 (0.21) | 4.68 (0.5)
3 | NC[C@@H]1O[C@H](O[C@H]2[C@@H](O)[C@H](O[C@@H]3[C@@H](O)[C@H](N)C[C@H](N)[C@H]3O[C@H]3O[C@H](CO)[C@@H](O)[C@H](O)[C@H]3N)O[C@@H]2CO)[C@H](N)[C@@H](O)[C@@H]1O [Paromomycin] | > 34.7 |  | > 50.1 | > 50.1 |  | > 34.7 |  |  |  |  | 
4 | N=C(N)c1ccc(OCCCCCOc2ccc(C(=N)N)cc2)cc1 [Pentamidine] | > 34.7 |  | 2.82 | 8.71 |  | 15.5 |  |  |  |  | 
5 | CC[C@@H]([C@H](C)O)n1ncn(-c2ccc(N3CCN(c4ccc(OC[C@@H]5CO[C@@](Cn6cncn6)(c6ccc(F)cc6F)C5)cc4)CC3)cc2)c1=O [Posaconazole] | 17.8 |  | 8.51 | 36.3 |  | 18.6 |  |  |  |  | 
6 | NC(=O)c1cnccn1 [Pyrazinamide] | > 34.7 |  | > 50.1 | > 50.1 |  | > 34.7 |  |  |  |  | 
7 | Cc1ccc(C(=O)Nc2ccc(S(=O)(=O)O)c3cc(S(=O)(=O)O)cc(S(=O)(=O)O)c23)cc1NC(=O)c1cccc(NC(=O)Nc2cccc(C(=O)Nc3cc(C(=O)Nc4ccc(S(=O)(=O)O)c5cc(S(=O)(=O)O)cc(S(=O)(=O)O)c45)ccc3C)c2)c1 [Suramin] | > 34.7 |  | > 50.1 | > 50.1 |  | > 34.7 |  |  |  |  | 
